Experimental findings from patent US8101760B2, “Glucocorticoid receptor modulator and methods of use” (Eli Lilly and Company, priority 2007, dated 2012) are described below.

The term Ki denotes a dissociation constant, usually derived from enzyme kinetics or from competition with a known ligand.

Data set [1] addresses T1, human AR (androgen receptor) (Homo sapiens, UniProt P10275).
T1 construct: expressed in transfected cells; host or cells: HEK293 (lysate, '293-AR lysate')
T1 sequence (P10275 1-920): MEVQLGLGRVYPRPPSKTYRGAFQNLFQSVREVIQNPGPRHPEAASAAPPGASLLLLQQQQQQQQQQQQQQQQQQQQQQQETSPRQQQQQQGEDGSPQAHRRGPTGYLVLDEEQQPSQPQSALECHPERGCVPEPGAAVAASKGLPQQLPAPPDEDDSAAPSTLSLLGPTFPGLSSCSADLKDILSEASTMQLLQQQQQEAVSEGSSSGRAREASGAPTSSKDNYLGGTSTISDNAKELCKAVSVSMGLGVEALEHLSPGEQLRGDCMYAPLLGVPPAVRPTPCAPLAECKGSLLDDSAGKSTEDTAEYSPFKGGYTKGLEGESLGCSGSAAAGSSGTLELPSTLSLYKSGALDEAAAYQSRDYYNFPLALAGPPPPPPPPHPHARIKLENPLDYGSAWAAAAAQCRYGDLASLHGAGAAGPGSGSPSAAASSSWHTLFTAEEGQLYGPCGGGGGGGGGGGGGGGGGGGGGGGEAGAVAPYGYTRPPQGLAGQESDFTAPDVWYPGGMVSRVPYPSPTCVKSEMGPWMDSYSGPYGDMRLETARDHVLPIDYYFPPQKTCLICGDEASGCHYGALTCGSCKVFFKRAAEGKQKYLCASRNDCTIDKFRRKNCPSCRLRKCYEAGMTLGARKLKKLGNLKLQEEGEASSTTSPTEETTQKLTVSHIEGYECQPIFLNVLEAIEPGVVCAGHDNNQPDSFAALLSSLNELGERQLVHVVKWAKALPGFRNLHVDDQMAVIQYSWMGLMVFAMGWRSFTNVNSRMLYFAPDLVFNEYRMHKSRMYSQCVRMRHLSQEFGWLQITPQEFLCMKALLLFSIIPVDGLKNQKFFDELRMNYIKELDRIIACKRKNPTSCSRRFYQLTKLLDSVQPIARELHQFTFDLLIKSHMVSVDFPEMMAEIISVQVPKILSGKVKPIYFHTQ
Nature of the data set: Nuclear hormone receptor binding assay, AR. On the procedure: (§1) Cell lysates from human embryonic kidney HEK293 cells overexpressing human GR (glucocorticoid receptor), AR (androgen receptor), MR (mineralocorticoid receptor), or PR (progesterone receptor) are used for receptor-ligand competition binding assays to determine Ki values.
(§2) Briefly, steroid receptor competition binding assays are run in a buffer containing 20 mM Hepes buffer (pH=7.6), 0.2 mM EDTA, 75 mM NaCl, 1.5 mM MgCl2, 20% glycerol, 20 mM sodium molybdate, 0.2 mM DTT (dithiothreitol), 20 μg/mL aprotinin and 20 μg/mL leupeptin. Typically, steroid receptor binding assays include radio-labeled ligands, such as 0.3 nM [^3H]-dexamethasone for GR binding, 0.36 nM [^3H]-methyltrienolone for AR binding, 0.25 nM [^3H]-aldosterone for MR binding, and 0.29 nM [^3H]-methyltrienolone for PR binding, and either 20 μg 293-GR lysate, 22 μg 293-AR lysate, 20 μg 293-MR lysate or 40 μg 293-PR lysate per well. Assays are typically run in 96-well format. Competing test compounds are added at various concentrations ranging from about 0.01 nM to 10 μM. Non-specific binding is determined in the presence of 500 nM dexamethasone for GR binding, 500 nM aldosterone for MR binding, or 500 nM methyltrienolone for AR and PR binding. […] After an incubation of 2 hours, plates are read in a Wallac Microbeta counter. […]

Data set [2] can be described thus: Bioavailability and plasma exposure after oral administration to test animals. The data set is classed as in vivo.
Data set [3] addresses T2, human PR (progesterone receptor) (Homo sapiens, UniProt P06401).
T2 construct: expressed in transfected cells; host or cells: HEK293 (lysate, '293-PR lysate')
T2 sequence (P06401 1-933): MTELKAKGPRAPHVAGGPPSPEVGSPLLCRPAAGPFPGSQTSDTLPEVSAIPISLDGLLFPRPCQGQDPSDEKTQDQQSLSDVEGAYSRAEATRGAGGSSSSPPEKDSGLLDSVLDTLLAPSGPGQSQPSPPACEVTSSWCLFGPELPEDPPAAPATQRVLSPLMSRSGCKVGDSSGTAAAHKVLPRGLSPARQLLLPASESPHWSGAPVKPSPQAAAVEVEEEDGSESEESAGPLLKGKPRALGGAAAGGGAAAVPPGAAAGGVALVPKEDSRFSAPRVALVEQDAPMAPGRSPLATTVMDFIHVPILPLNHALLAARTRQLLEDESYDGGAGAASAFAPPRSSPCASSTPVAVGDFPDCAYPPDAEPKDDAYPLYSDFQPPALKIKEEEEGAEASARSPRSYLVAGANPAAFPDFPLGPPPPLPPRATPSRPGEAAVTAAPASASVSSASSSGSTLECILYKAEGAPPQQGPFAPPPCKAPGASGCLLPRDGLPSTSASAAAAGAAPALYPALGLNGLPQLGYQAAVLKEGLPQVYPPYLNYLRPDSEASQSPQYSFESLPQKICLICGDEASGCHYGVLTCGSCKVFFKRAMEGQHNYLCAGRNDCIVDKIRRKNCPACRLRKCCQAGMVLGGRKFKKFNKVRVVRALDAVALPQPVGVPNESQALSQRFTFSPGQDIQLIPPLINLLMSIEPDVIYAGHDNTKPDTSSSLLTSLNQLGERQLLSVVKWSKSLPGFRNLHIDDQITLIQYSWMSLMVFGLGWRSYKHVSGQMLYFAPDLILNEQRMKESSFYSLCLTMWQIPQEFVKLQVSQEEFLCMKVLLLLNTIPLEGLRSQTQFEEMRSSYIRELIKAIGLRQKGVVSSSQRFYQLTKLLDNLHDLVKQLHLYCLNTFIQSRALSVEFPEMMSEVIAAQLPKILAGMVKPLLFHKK
Nature of the data set: Nuclear hormone receptor binding assay, PR. On the procedure: as §1, §2

Turning to `CC/C(=C1\c2ccc(Cl)cc2OCc2ncccc21)c1cccc(NS(C)(=O)=O)c1` [Compound (I), (E)-N-{3-[1-(8-Chloro-11H-10-oxa-1-aza-dibenzo[a,d]cyclohepten-5-ylidene)-propyl]-phenyl}-methanesulfonamide], the Ki in data set [1] (HEK293 cell lysate expressing human AR, [3H]-methyltrienolone, mean of 5 determinations) was 16.2 nM; in data set [3] (HEK293 cell lysate expressing human PR, [3H]-methyltrienolone, mean of 5 determinations), 31 nM. The “greater affinity for GR relative to AR” value in data set [1] (binding selectivity GR vs AR) is on record as at least 30 fold. In addition, in data set [2], the bioavailability entry is recorded as “good”. The plasma exposure entry in data set [2] was “good”. Further, the “greater affinity for GR relative to PR” value in data set [3] (binding selectivity GR vs PR) was at least 30 fold.
